The values below come from patent US20240374692A1, “A NOVEL ACYLATED INSULIN ANALOG” (SUNSHINE LAKE PHARMA CO., LTD., priority 2021, published 2024).

For this assay, the system named is STZ-induced type I diabetes mellitus (T1DM) C57BL/6 mice. Briefly: Hypoglycemic effect, repeated administration (four times) to STZ-induced T1DM C57BL/6 mice (Example 5). In kind it is in vivo. Details: key to random blood glucose: random blood glucose in mmol/L, Mean±SEM. The procedure: SPF grade C57BL/6 mice were reared in a suitable rearing box in a barrier environment, with a rearing temperature of 20-26° C., a humidity of 40-70%, a time between day and night of 12 h/12 h, and the mice had free access to standard food and autoclaved sterilization water. After a 3-day quarantine period and a 2-day acclimation period, the mice were fasted for 12 h, and the mice were injected intraperitoneally with streptozotocin solution (STZ, 13 mg/mL, in citrate buffer) or citrate buffer at 130 mg/kg (control group). 3 Days and 7 days after administration of streptozotocin, random blood glucose and fasting blood glucose were detected, and the random blood glucose value above 25 mmol/L and fasting blood glucose value above 11.1 mmol/L were selected as T1DM model mice for follow-up experiments. On the day before administration, random blood glucose was monitored and mice were weighed. Mice were divided into 4 groups according to random blood glucose and body weight.
Subcutaneous administration (S.C.) was used to administer the corresponding vehicle or drug, once every 4-5 days, for a total of 4 administrations. During the experiment, the animals were allowed to eat and drink water freely. The random blood glucose before the first administration, and 0.25, 0.5, 1, 2, 4, 6, 8, 10, 24, 48, 72, and 96 h after administration were assessed, as well as the random blood glucose before the second, third and fourth administration, and 1, 2, 4, 6, 8, 24, 48, 72, 96 and 120 h after administration.
All raw data were entered into Excel files and expressed as Mean±SEM. Statistical analysis of data was performed using Graphpad Prism 7.0 software, one-way or two-way ANOVA comparison method, and P<0.05 was used as the criterion for significant differences.

Take “A14E, B16E, B25H, B29K(N(ε)-COOH(CH2)18CO-L-Lys-CO(CH2)2CO—(OEG)2), desB30 human insulin analog [Insulin-a3]”: the “glucose control effect and effective glucose control time compared with Insulin-a1” value (1400 nmol/Kg S.C. four times) is reported as “significantly better”. The “time after administration at which blood glucose reached the lowest level” value (1400 nmol/Kg S.C., Insulin-a1 each administration, Insulin-a3 first and second administrations) worked out at 24 h. Moreover, the “time after administration at which blood glucose reached the normal level” value (1400 nmol/Kg S.C., after the first and second administrations) is 96 h; the “time after administration at which blood glucose reached the normal level” value (1400 nmol/Kg S.C., after the third and fourth administrations) was 120 h. Besides, the random blood glucose is recorded as 31.3 ± 3.1 (Day 0 (1st administration), 1400 nmol/Kg S.C. four times); 17.4 ± 6.7 (Day 1, 1400 nmol/Kg S.C. four times); 26.9 ± 8.0 (Day 4 (2nd administration), 1400 nmol/Kg S.C. four times); 7.1 ± 3.8 (Day 5, 1400 nmol/Kg S.C. four times); 26.2 ± 7.9 (Day 9 (3rd administration), 1400 nmol/Kg S.C. four times); 8.6 ± 5.7 (Day 10, 1400 nmol/Kg S.C. four times). Also, the random blood glucose worked out at 24.4 ± 5.7 (Day 14 (4th administration), 1400 nmol/Kg S.C. four times) and 19.7 ± 6.4 (Day 18, 1400 nmol/Kg S.C. four times). Where the note is “repeated administration, C57BL6 mice modeled by STZ”, the “time the effective glucose control effect can be maintained” value was 4-5 days/time.
